{"source": "patent US9388250B2", "about": "“Method to treat psoriasis and other hyperproliferative skin disorders” (CORNELL UNIVERSITY, priority 2009, dated 2016)", "key": {"keratinocytes in culture": {"system": "keratinocytes in culture", "experiment": "IL-22-induced rise in cAMP within keratinocytes in culture", "type": "cell-based", "settings": "IL-22 stimulated", "source_text": "To address the role of sAC in keratinocyte proliferation we studied IL-22-induced psoriasis pathogenesis as a model system. IL-22 induced a rise in cAMP within keratinocytes in culture. This cAMP rise was inhibited by KH7 (a specific inhibitor of sAC)."}, "C57B1/6 mouse ears [1]": {"system": "C57B1/6 mouse ears", "experiment": "IL-22-induced acanthosis in mouse ears, subcutaneous co-injection of IL-22+KH7", "type": "in vivo", "procedure": "FIG. 1 Tissue sections stained with H/E of C57B1/6 mouse ears following injection with saline, IL-22 and IL-22+KH7 (a sAc inhibitor). Slides were visualized on a standard pathology microscope. Bar graph in lower right corner represents the average±SEM thickness of epidermis in each of three conditions listed in the previous sentence. a student t test was performed with p value listed.\nIL-22 protein was purchased from Preprotech and reconstituted in sterile water as per the manufacturer's instructions. Concentrated IL-22 was diluted to a working concentration of 500 ng/20 μL in sterile saline alone, or with KH7 at 100 μM. These solutions were prepared fresh each day they were used. C57B1/6 mice greater than 2 months in age, kept under a normal light/dark cycle, and fed normal chow were injected subcutaneously in their left ear with 20 μL of IL-22 alone and in their right ear with 20 μL of IL-22+KH7 every other day for two weeks, or were injected subcutaneously in their left and right ear with 20 μL of IL-22 and then treated topically (54) following each injection with vehicle on the left ear and KH7 on the right ear every other day for two weeks. As a control C57B1/6 mice were injected with 20 μL of IL-22 in their left ear and 20 μL of sterile saline alone in their right ear every other day for two weeks. After two weeks the ears were removed, formalin fixed, paraffin embedded, sectioned, and stained with simple hematoxylin and eosin. Epidermal height was measured from the bottom of the basal cell layer to the top of the granular cell layer using a microscope and a micrometer. Three to four measurements were taken along the ear and multiple sections were measured for each condition. In addition, the total number of acanthotic ear sections were recorded as an indication of the distribution of acanthosis."}, "C57B1/6 mouse ears [2]": {"system": "C57B1/6 mouse ears", "experiment": "IL-22-induced acanthosis in mouse ears, topical application of KH7", "type": "in vivo", "settings": "ear painted with 100 micromolar KH7 in DMSO one hour after IL-22 injection, every other day for two weeks, three mice, ANOVA P<0.05 IL-22 vs IL-22+KH7, not different from control", "procedure": "FIG. 11. Topical application of KH7 inhibits IL-22-induced acanthosis As before C57B1/6 mouse ears were injected with normal saline (control) or 500 ng of IL-22 in 20 microliters of normal saline (IL-22). After incubation for one hour the left ear was painted with 5 microliters of DMSO and the right ear was painted with 100 micromolar KH7 in DMSO (IL-22+KH7). This was repeated every other day for two weeks. The ears were then removed and the total area of acanthosis of each ear was calculated and represented as a % of acanthosis relative to control ears. […]\nIL-22 protein was purchased from Preprotech and reconstituted in sterile water as per the manufacturer's instructions. […] Epidermal height was measured from the bottom of the basal cell layer to the top of the granular cell layer using a microscope and a micrometer. Three to four measurements were taken along the ear and multiple sections were measured for each condition. In addition, the total number of acanthotic ear sections were recorded as an indication of the distribution of acanthosis.\nTopical application of KH7 inhibits IL-22-induced acanthosis. […] The ears were then removed and the total area of acanthosis of each ear was calculated and represented as a % of acanthosis relative to control ears. […]"}}}
{"smiles": "CC(Sc1nc2ccccc2[nH]1)C(=O)N/N=C/c1cc(Br)ccc1O", "note": "(centres unmarked) [KH7]", "values": [{"measurement": "IL-22-induced cAMP rise within keratinocytes", "setting": "keratinocytes in culture", "value": "inhibited"}, {"measurement": "IL-22-induced acanthosis (thickness of epidermis)", "setting": "C57B1/6 mouse ears [1]; IL-22 500 ng/20 μL with KH7 at 100 μM, every other day for two weeks", "value": "completely blocked"}, {"measurement": "IL-22-induced parakeratosis", "setting": "C57B1/6 mouse ears [1]; IL-22 with KH7, every other day for two weeks", "value": "completely blocked"}, {"measurement": "IL-22-induced recruitment of immunocytes (ie T cells)", "setting": "C57B1/6 mouse ears [1]; injection of IL-22+KH7, H/E sections", "value": "completely blocked"}, {"measurement": "IL-22-induced acanthosis (total area of acanthosis, % relative to control ears)", "setting": "C57B1/6 mouse ears [2]", "value": "inhibits"}]}
